Results as given in US11802120B2, “Fused cyclic urea derivatives as CRHR2 antagonist” (RaQualia Pharma Inc., priority 2018, dated 2023).
pIC50: −log10 of the molar value.

Target: T1, human CRHR2-alpha (Homo sapiens, UniProt Q13324)
T1 sequence (Q13324 1-411): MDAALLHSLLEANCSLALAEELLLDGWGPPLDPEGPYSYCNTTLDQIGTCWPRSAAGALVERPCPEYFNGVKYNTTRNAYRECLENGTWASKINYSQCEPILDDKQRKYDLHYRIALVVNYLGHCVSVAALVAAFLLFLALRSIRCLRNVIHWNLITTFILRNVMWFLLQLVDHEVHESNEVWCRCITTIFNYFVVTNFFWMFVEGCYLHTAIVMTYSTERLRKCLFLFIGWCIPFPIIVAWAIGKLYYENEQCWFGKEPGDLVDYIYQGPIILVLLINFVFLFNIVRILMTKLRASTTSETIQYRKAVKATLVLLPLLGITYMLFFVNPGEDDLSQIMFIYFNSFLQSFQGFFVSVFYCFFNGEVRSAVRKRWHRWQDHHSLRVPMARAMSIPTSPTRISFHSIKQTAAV
Test: cAMP functional assay for human CRHR2 (LANCE Ultra cAMP, TR-FRET)
Format: cell-based
Details: CHO-K1 cells expressing human CRHR2-alpha, agonist human urocortin2 at EC80, cAMP; read-out: IC50 against CRHR2
Outline: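 CHO-K1 stable lines; 4,000 cells/well; compound 30 min, 25° C; EC80 agonist (human urocortin2 → CRHR2, CRF → CRHR1) 30 min, 25° C; buffer HBSS/0.1% BSA/0.5 mM IBMX/5 mM Hepes pH 7.4; Eu-cAMP tracer + ULight antibody 60 min; TR-FRET read; IC50 from % inhibition curves.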

A pIC50 greater than 6.52 was found for O=C(N[C@H]1CC[C@H](Cn2c(=O)n(Cc3ccncc3)c3ccccc32)CC1)c1cc(Cl)cnc1C(F)(F)F [Example 280, 5-chloro-N-((1r,4r)-4-((2-oxo-3-(pyridin-4-ylmethyl)-2,3-dihydro-1H-benzo[d]imidazol-1-yl)methyl)cyclohexyl)-2-(trifluoromethyl)nicotinamide] in this work.

A pIC50 greater than 6.52 was found for O=C(N[C@H]1CC[C@H](Cn2c(=O)n(Cc3ccncc3)c3ccccc32)CC1)c1cc(Cl)ccc1C(F)(F)F [Example 281, 5-chloro-N-((1r,4r)-4-((2-oxo-3-(pyridin-4-ylmethyl)-2,3-dihydro-1H-benzo[d]imidazol-1-yl)methyl)cyclohexyl)-2-(trifluoromethyl)benzamide] in this work.

A pIC50 greater than 6.52 was found for O=C(N[C@H]1CC[C@H](Cn2c(=O)n(Cc3ccccn3)c3ccccc32)CC1)c1cc(Cl)cnc1C(F)(F)F [Example 282, 5-chloro-N-((1r,4r)-4-((2-oxo-3-(pyridin-2-ylmethyl)-2,3-dihydro-1H-benzo[d]imidazol-1-yl)methyl)cyclohexyl)-2-(trifluoromethyl)nicotinamide] in this work.

A pIC50 greater than 6.52 was found for O=C(N[C@H]1CC[C@H](Cn2c(=O)n(Cc3ccccn3)c3ccccc32)CC1)c1cc(Cl)ccc1C(F)(F)F [Example 283, 5-chloro-N-((1r,4r)-4-((2-oxo-3-(pyridin-2-ylmethyl)-2,3-dihydro-1H-benzo[d]imidazol-1-yl)methyl)cyclohexyl)-2-(trifluoromethyl)benzamide] in this work.

A pIC50 greater than 6.52 was found for O=C(N[C@H]1CC[C@H](Cn2c(=O)n(Cc3cccnc3)c3ccccc32)CC1)c1cc(Cl)cnc1C(F)(F)F [Example 284, 5-chloro-N-((1r,4r)-4-((2-oxo-3-(pyridin-3-ylmethyl)-2,3-dihydro-1H-benzo[d]imidazol-1-yl)methyl)cyclohexyl)-2-(trifluoromethyl)nicotinamide] in this work.

A pIC50 greater than 6.52 was found for O=C(Cn1c(=O)n(C[C@H]2CC[C@H](NC(=O)c3cc(Cl)cnc3C(F)(F)F)CC2)c2ccccc21)c1ccccc1 [Example 285, 5-chloro-N-((1r,4r)-4-((2-oxo-3-(2-oxo-2-phenylethyl)-2,3-dihydro-1H-benzo[d]imidazol-1-yl)methyl)cyclohexyl)-2-(trifluoromethyl)nicotinamide] in this work.

A pIC50 greater than 6.52 was found for O=C(Cn1c(=O)n(C[C@H]2CC[C@H](NC(=O)c3cc(Cl)ccc3C(F)(F)F)CC2)c2ccccc21)c1ccccc1 [Example 286, 5-chloro-N-((1r,4r)-4-((2-oxo-3-(2-oxo-2-phenylethyl)-2,3-dihydro-1H-benzo[d]imidazol-1-yl)methyl)cyclohexyl)-2-(trifluoromethyl)benzamide] in this work.

A pIC50 greater than 6.52 was found for O=C(Cn1c(=O)n(C[C@H]2CC[C@H](NC(=O)c3cc(Cl)ccc3Cl)CC2)c2ccccc21)c1ccccc1 [Example 287, 2,5-dichloro-N-((1r,4r)-4-((2-oxo-3-(2-oxo-2-phenylethyl)-2,3-dihydro-1H-benzo[d]imidazol-1-yl)methyl)cyclo-hexyl)benzamide] in this work.

A pIC50 greater than 6.52 was found for O=C(N[C@H]1CC[C@H](Cn2c(=O)n(-c3ccccc3Cl)c3ncccc32)CC1)c1cc(Cl)cnc1C(F)(F)F [Example 288, 5-chloro-N-((1r,4r)-4-((3-(2-chlorophenyl)-2-oxo-2,3-dihydro-1H-imidazo[4,5-b]pyridin-1-yl)methyl)cyclo-hexyl)-2-(trifluoromethyl) nicotinamide] in this work.

A pIC50 greater than 6.52 was found for Cc1cnccc1-n1c(=O)n(C[C@H]2CC[C@H](NC(=O)c3cc(Cl)cnc3C(F)(F)F)CC2)c2ccccc21 [Example 289, 5-chloro-N-((1r,4r)-4-((3-(3-methylpyridin-4-yl)-2-oxo-2,3-dihydro-1H-benzo[d]imidazol-1-yl)methyl)cyclo-hexyl)-2-(trifluoromethyl) nicotinamide] in this work.

A pIC50 greater than 6.52 was found for CNC(=O)c1ccc(-n2c(=O)n(C[C@H]3CC[C@H](NC(=O)c4cc(Cl)cnc4C(F)(F)F)CC3)c3cc(F)ccc32)cn1 [Example 290, 5-(3-(((1r,4r)-4-(5-chloro-2-(trifluoromethyl)nico-tinamido)cyclohexyl)methyl)-5-fluoro-2-oxo-2,3-dihydro-1H-benzo[d]imidazol-1-yl)-N-methyl-picolinamide] in this work.

A pIC50 greater than 6.52 was found for N#Cc1ccccc1-n1c(=O)n(C[C@H]2CC[C@H](NC(=O)c3cc(Cl)cnc3C(F)(F)F)CC2)c2ccccc21 [Example 291, 5-chloro-N-((1r,4r)-4-((3-(2-cyanophenyl)-2-oxo-2,3-dihydro-1H-benzo[d]imidazol-1-yl)methyl)cyclo-hexyl)-2-(trifluoromethyl) nicotinamide] in this work.

A pIC50 greater than 6.52 was found for COc1ccc(C#N)c(-n2c(=O)n(C[C@H]3CC[C@H](NC(=O)c4cc(Cl)cnc4C(F)(F)F)CC3)c3ccccc32)c1 [Example 292, 5-chloro-N-((1r,4r)-4-((3-(2-cyano-5-methoxyphenyl)-2-oxo-2,3-dihydro-1H-benzo[d]imidazol-1-yl)methyl)cyclohexyl)-2-(trifluoromethyl)nicotinamide] in this work.

A pIC50 greater than 6.52 was found for N#Cc1ncccc1-n1c(=O)n(C[C@H]2CC[C@H](NC(=O)c3cc(Cl)cnc3C(F)(F)F)CC2)c2ccccc21 [Example 293, 5-chloro-N-((1r,4r)-4-((3-(2-cyanopyridin-3-yl)-2-oxo-2,3-dihydro-1H-benzo [d]imidazol-1-yl)methyl)cyclohexyl)-2-(trifluoro-methyl)nicotinamide] in this work.

A pIC50 greater than 6.52 was found for COCCn1nnc2cc(-n3c(=O)n(C[C@H]4CC[C@H](NC(=O)c5cc(Cl)cnc5C)CC4)c4ccccc43)ccc21 [Example 294, 5-chloro-N-((1r,4r)-4-((3-(1-(2-methoxyethyl)-1H-benzo[d][1,2,3]triazol-5-yl)-2-oxo-2,3-dihydro-1H-benzo[d]imidazol-1-yl)methyl)cyclohexyl)-2-methylnicotinamide] in this work.

A pIC50 greater than 6.52 was found for CCn1nc2ncc(-n3c(=O)n(C[C@H]4CC[C@H](NC(=O)c5cc(Cl)cnc5C)CC4)c4ccccc43)cc2c1C [Example 295, 5-chloro-N-((1r,4r)-4-((3-(2-ethyl-3-methyl-2H-pyrazolo[3,4-b]pyridin-5-yl)-2-oxo-2,3-dihydro-1H-benzo[d]imidazol-1-yl)methyl)cyclohexyl)-2-methylnicotinamide] in this work.

A pIC50 greater than 6.52 was found for Cc1ncc(Cl)cc1C(=O)N[C@H]1CC[C@H](Cn2c(=O)n(-c3ccn4cncc4c3)c3ccccc32)CC1 [Example 296, 5-chloro-N-((1r,4r)-4-((3-(imidazo[1,5-a]pyridin-7-yl)-2-oxo-2,3-dihydro-1H-benzo[d]imidazol-1-yl)methyl)cyclohexyl)-2-methylnicotinamide] in this work.

A pIC50 greater than 6.52 was found for CNc1cnc(-n2c(=O)n(C[C@H]3CC[C@H](NC(=O)c4cc(Cl)cnc4C(F)(F)F)CC3)c3ccccc32)cn1 [Example 298, 5-chloro-N-((1r,4r)-4-((3-(5-(methylamino)pyrazin-2-yl)-2-oxo-2,3-dihydro-1H-benzo[d]imidazol-1-yl)methyl)cyclo-hexyl)-2-(trifluoromethyl) nicotinamide] in this work.

A pIC50 greater than 6.52 was found for O=C(N[C@H]1CC[C@H](Cn2c(=O)n(-c3ccc(N[C@H]4CCOC4)nc3)c3ccccc32)CC1)c1cc(Cl)cnc1C(F)(F)F [Example 299, 5-chloro-N-((1S,4r)-4-((2-oxo-3-(6-(((S)-tetrahydro-furan-3-yl)amino)pyridin-3-yl)-2,3-dihydro-1H-benzo [d]imidazol-1-yl)methyl)cyclohexyl)-2-(trifluoro-methyl)nicotinamide] in this work.
